Measurements: US9353089B2, “Compositions and methods for the treatment of malaria” (Saint Louis University, priority 2013, dated 2016)
Read-outs that look alike come from different tables or passages of the source.

How the values were obtained:
[1] = test system: Plasmodium falciparum 3D7 (CQ-sensitive); experiment: In vitro antimalarial assay (malaria SYBR Green I-based fluorescence, MSF), 3D7; assay type: cell-based
Outline: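 Asynchronous P. falciparum 3D7 cultures (0.5% parasitemia, 2% hematocrit) were exposed to serially diluted compounds, in quadruplicate. Growth was then quantified by SYBR Green I fluorescence after adding lysis buffer containing 0.2 μL/mL dye.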

[2] = test system: HepG2 cells; experiment: HepG2 cytotoxicity assay; assay type: cell-based; settings: Homo sapiens, 72 hours
Protocol: HepG2 cells (ATCC Cat. No. HB-8065) were maintained in DMEM supplemented with 10% fetal bovine serum and L-glutamine. Cells were grown at 37° C. and 5% CO2 on flasks coated with poly-d-lysine. To assess compounds for potential cytotoxic properties cells were plated at 10,000 cells per well on 96-well poly-d-lysine plates at 10,000 cells per well. HepG2 cells were allowed to adhere for at least 4 hours prior to application of test compounds. Cells were incubated with test compounds for 72 hours before measuring cellular viability. Cellular viability was measured using PrestoBlue® Cell Viability Reagent (Life Technologies). Briefly, 11 μL of 10× PrestoBlue reagent was added to 100 μl in each assay well. Cells were incubated at 37° C. and 5% CO2 for 30 minutes prior to reading on Tecan Safire2, excitation at 560 nm, 10 nm bandwidth and emission at 590 nm, 10 nm bandwidth. GraphPad Prism 5.0 (GraphPad Software, Inc., USA) was used to generate IC50 values via non-linear regression analysis.

[3] = molecular target: recombinant human Cathepsin D (Homo sapiens (Human), UniProt P07339); experiment: Cathepsin D enzyme inhibition FRET assay; assay type: biochemical; settings: Table 8; read-out: CatD IC50
Protocol: (§1) The enzymatic inhibition activity assays were determined using the fluorescence resonance energy transfer (FRET) assay. The assays were performed in a 384-well plate format. […] The concentration of Cathepsin D was 20 ng/μL, and 1 ng/μL of Cathepsin E was used. CatD and CatE were activated by incubation in assay buffer (0.1 M NaOAc, 0.2 M NaCl, pH 3.5) at room temperature for 30 min. Subsequently, the rhBACE-1 substrate (R&D Systems, catalog# ES004), the Cathepsin D and Cathepsin E substrate (R&D Systems, Catalog # ES001) were added accordingly to final concentration 20 μM to initiate the reaction. After 60 min incubation at room temperature, the time-resolved fluorescence at Ex/Em=360 nm/460 nm was measured on an EnVision multilabel plate reader (Perkin-Elmer). The analytical software, GraphPad Prism 5.0 (GraphPad Software, Inc., USA) was used to generate IC50 values via non-linear regression analysis, which are reported in Tables 8-13 below as BACE1 IC50 values.

[4] = Rat pharmacokinetic (PK) analysis; assay type: in vivo; settings: for half-life: male, SD, plasma, read-out: Rat PK t1/2 (converted)
Protocol: Male SD rats, weighing 180-220 g (Southern China Medical University, China) were utilized for the studies. Animals were maintained on standard animal chow and water ad libitum, in a climate controlled room (23±1° C.), 30-70% relative humidity, a minimum of 10 exchanges of room air per hour and a 12-h light/dark cycle) for one week prior to experiments. The test compound was dissolved in suitable solvent. Pharmacokinetic properties were determined following i.v. and oral administration. Animals were randomly distributed into two experimental groups (n=4). The oral groups were given 5 mg/kg of the test compound by gastric gavage. The other group was dosed by injection into the tail vein (1 mg/kg). […]; 2, 10, 30 min and 1, 2, 3, 4, 6, 8, 11 and 24 h (i.v.). Whole blood samples were collected in heparinized tubes. The plasma fraction was immediately separated by centrifugation (8,000 rpm, 6 min, 4° C.) and stored at −20° C. until LC-MS analysis. The rats were humanely euthanasia by carbon dioxide 24 hours after experiment without pain.
Plasma Sample Analysis. Standard Curve Sample Preparation:
The compound was dissolved in DMSO at a concentration of 2 mg/mL and diluted with 50% methanol solution to series concentration as follow: 20, 50, 100, 500, 1000, 2000, 4000, 6000, 12000, 40000 ng/mL. 10 μL series concentration solution and 50 μL blank plasma were added to 1.5 mL tube and vortex for 3 min, then 150 μL acetonitrile containing internal standard were added and vortex for 5 min, finally spin tube in centrifuge at 16000 g for 40 min at 4° C. Plasma sample preparation: The plasma samples were prepared using protein precipitation method. […] LC/MS/MS analysis: After centrifuge, 100 μL supernatant was transfer to the 96 well plate and analyzed by LC-MS/MS using an Applied Biosystems-Sciex model API 3000 mass spectrometer. The pharmacokinetics parameters were calculated by analyzing the compound concentration in plasma samples using the pharmacokinetic software DAS.2.0.

[5] = molecular target: recombinant human Cathepsin E (Homo sapiens (Human), UniProt P14091); experiment: Cathepsin E enzyme inhibition FRET assay; assay type: biochemical; settings: Table 8; read-out: CatE IC50
Protocol: as §1

[6] = test system: Plasmodium falciparum Dd2 (multi-drug resistant); experiment: In vitro antimalarial assay (malaria SYBR Green I-based fluorescence, MSF), Dd2; assay type: cell-based
Protocol: In vitro antimalarial activity was determined by a malaria SYBR Green I-based fluorescence (MSF) method described previously by Smilkstein et al. (2004, which is incorporated herein by reference) with slight modification (Winter, et al., 2006, which is incorporated herein by reference). Stock solutions of each test drug were prepared in DMSO at a concentration of 20 mM. The drug solutions were serially diluted with culture medium and distributed to asynchronous parasite cultures on 96-well plates in quadruplicate in a total volume of 100 μL to achieve 0.5% parasitemia with a 2% hematocrit in a total volume of 100 pt. The plates were then incubated for 72 h at 37° C. After incubation, 100 μL of lysis buffer with 0.2 μL/mL SYBR Green I was added to each well. The plates were incubated at 37° C. for an hour in the dark and then placed in a 96-well fluorescence plate reader (Spectramax Gemini-EM; Molecular Diagnostics) with excitation and emission wavelengths at 497 nm and 520 nm, respectively, for measurement of fluorescence.
Antimalarial potency of compounds was determined by this technique for both Plasmodium falciparum 3D7 (CQ-sensitive) and Dd2 (multi-drug resistant) strains.

[7] = 3D7, 48 h, read-out: Pf 3D7 IC50 (μM, 48 hr), 48 hr
[8] = 3D7, 72 h, read-out: Pf 3D7 IC50 (μM, 72 hr), 72 hr
[9] = 3D7, read-out: 3D7 IC50 (μM), Table 13
[10] = 3D7, read-out: Pf3D7 IC50 (μM), Table 10
[11] = 3D7, read-out: Pf 3D7 IC50, Table 8
[12] = DD2, 72 h, read-out: Pf Dd2 IC50 (μM, 72 hr)

Chain of recombinant human Cathepsin E (P14091 54-396): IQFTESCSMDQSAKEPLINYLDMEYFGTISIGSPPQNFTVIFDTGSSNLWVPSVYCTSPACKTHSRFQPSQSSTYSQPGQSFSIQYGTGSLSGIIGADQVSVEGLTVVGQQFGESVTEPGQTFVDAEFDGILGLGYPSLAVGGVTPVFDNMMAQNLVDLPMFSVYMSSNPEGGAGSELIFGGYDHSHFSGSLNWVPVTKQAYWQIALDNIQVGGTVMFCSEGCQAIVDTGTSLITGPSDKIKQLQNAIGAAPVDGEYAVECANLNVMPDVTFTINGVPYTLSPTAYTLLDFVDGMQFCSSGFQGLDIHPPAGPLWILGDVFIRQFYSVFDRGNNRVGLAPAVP
Chain of recombinant human Cathepsin D (P07339 65-412): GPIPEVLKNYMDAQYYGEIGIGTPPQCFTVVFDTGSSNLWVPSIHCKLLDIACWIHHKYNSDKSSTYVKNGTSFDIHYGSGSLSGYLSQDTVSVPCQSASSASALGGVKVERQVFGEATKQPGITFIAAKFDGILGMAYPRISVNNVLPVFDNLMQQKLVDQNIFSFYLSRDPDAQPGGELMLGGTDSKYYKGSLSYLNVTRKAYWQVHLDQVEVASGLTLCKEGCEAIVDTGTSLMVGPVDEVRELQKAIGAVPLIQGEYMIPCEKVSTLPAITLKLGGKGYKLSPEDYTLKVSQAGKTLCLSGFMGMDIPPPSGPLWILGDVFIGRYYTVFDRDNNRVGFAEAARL

**Q.** For `COc1ccc(C2(c3ccc(OC)cc3)NC(=N)N(C3CCOCC3)C2=O)cc1` [Example 176, 2-imino-5,5-bis(4-methoxyphenyl)-3-(oxan-4-yl)-imidazolidin-4-one], which IC50 [1, 7] is on record?
**A.** The IC50 was 0.404 µM.

**Q.** And the IC50 [1, 8]?
**A.** The IC50 was 0.459 µM.

**Q.** What about the IC50 [1, 9] of the same molecule?
**A.** The IC50 was 0.459 µM.

**Q.** What about the IC50 [1, 10] of the same molecule?
**A.** The IC50 was 0.459 µM.

**Q.** What about the IC50 [1, 11] of the same molecule?
**A.** The IC50 was 0.453 µM.

**Q.** And the IC50 [2]?
**A.** Its IC50 is greater than 50000 nM.

**Q.** What about the IC50 [3] of the same molecule?
**A.** The IC50 was greater than 10000 nM.

**Q.** And the “Rat PK oral bioavailability (% F)” value ([4]; 5 mg/kg oral, 1 mg/kg i.v.)?
**A.** The value was 21 % F.

**Q.** And the half-life [4]?
**A.** The half-life was 1.1 h.

**Q.** And the IC50 [5]?
**A.** Its IC50 is 511 nM.

**Q.** And the IC50 [6, 12]?
**A.** Its IC50 is 0.526 µM.

**Q.** What about the IC50 ([6]; DD2, read-out: Dd2 IC50 (μM)) of the same molecule?
**A.** Its IC50 is 0.526 µM.

**Q.** With `COc1ccc(C2(c3ccc(OC)cc3)NC(=N)N(C3CCN(C(=O)OC(C)(C)C)CC3)C2=O)cc1` [Example 206, tert-butyl 4-[2-imino-4,4-bis(4-methoxyphenyl)-5-oxoimidazolidin-1-yl]piperidine-1-carboxylate] as the molecule, how does the IC50 [1, 7] read?
**A.** The IC50 was 0.339 µM.

**Q.** What about the IC50 [1, 8] of the same molecule?
**A.** The IC50 was 0.383 µM.

**Q.** What about the IC50 [1, 9] of the same molecule?
**A.** The IC50 was 0.436 µM.

**Q.** And the IC50 [1, 10]?
**A.** Its IC50 is 0.436 µM.

**Q.** And the IC50 [1, 11]?
**A.** Its IC50 is 0.383 µM.

**Q.** What about the IC50 [2] of the same molecule?
**A.** Its IC50 is 8000 nM.

**Q.** And the IC50 [3]?
**A.** The IC50 was 520 nM.

**Q.** What about the half-life [4] of the same molecule?
**A.** The half-life was 1.2 h.

**Q.** What about the IC50 [5] of the same molecule?
**A.** Its IC50 is 233 nM.

**Q.** And the IC50 [6, 12]?
**A.** Its IC50 is 0.367 µM.

**Q.** Which results are given for `COc1ccc(C2(c3ccc(OC)cc3)NC(=N)N(CC3CCOCC3)C2=O)cc1` [Example 275, 2-imino-5,5-bis(4-methoxyphenyl)-3-(oxan-4-ylmethyl)imidazolidin-4-one]?
**A.** IC50 [1, 7]: 0.571 µM; IC50 [1, 8]: 0.463 µM; IC50 [1, 9]: 0.521 µM; IC50 [1, 10]: 0.463 µM; IC50 [1, 11]: 0.463 µM; IC50 [2]: 30000 nM; IC50 [3]: 934 nM; IC50 [5]: 841 nM; IC50 [6, 12]: 0.442 µM; IC50 ([6]; DD2, read-out: Dd2 IC50 (μM)): 0.442 µM
